One may read the mass density as mass per unit of volume.

These results are taken from the NIST ThermoML archive (doi:10.1016/j.jct.2008.08.013).

Molecules are shown by their SMILES. Numbers after ± are expanded uncertainties.

For the first series the following is noted: 288.15 K; 101.33 kPa; Liquid; Vibrating tube method.
As to `Nc1ccccc1` [aniline], the mass density is 1025.93 ± 0.1 kg/m3.
Regarding `ClCCl` [dichloromethane], the mass density is reported as 1334.81 ± 0.18 kg/m3.
Still for that read-out and setting: the value for `O=[N+]([O-])c1ccccc1` [nitrobenzene] was 1211.53 ± 0.13 kg/m3.

The series is the same for the next values; noted with them: 293.15 K; 101.33 kPa; Liquid; Vibrating tube method.
In the case of `Nc1ccccc1` [aniline], the mass density amounted to 1021.04 ± 0.09 kg/m3.
Still for that read-out and setting: the value for `ClCCl` [dichloromethane] was 1325.67 ± 0.18 kg/m3.
For the molecule `O=[N+]([O-])c1ccccc1` [nitrobenzene], the mass density is given as 1202.61 ± 0.13 kg/m3.

The series is the same for the next values; noted with them: 298.15 K; 101.33 kPa; Liquid; Vibrating tube method.
Regarding `Nc1ccccc1` [aniline], the mass density came to 1017.1 ± 0.09 kg/m3.
Still for that read-out and setting: with `ClCCl` [dichloromethane] the figure was 1316.58 ± 0.17 kg/m3; with `O=[N+]([O-])c1ccccc1` [nitrobenzene], 1198.01 ± 0.12 kg/m3.

The same series, now with this note: 303.15 K; 101.33 kPa; Liquid; Vibrating tube method.
On to `Nc1ccccc1` [aniline], for which the mass density was found to be 1012.84 ± 0.09 kg/m3.
Take `ClCCl` [dichloromethane]: the mass density came out at 1307.9 ± 0.17 kg/m3.
The same measure, in the same setting: the value for `O=[N+]([O-])c1ccccc1` [nitrobenzene] was 1193.5 ± 0.12 kg/m3.
